Reference: patent publication US20220249404A1 (Nanjing Ruiying Runze Biopharmaceutical Technology Co., Inc., priority 2019, published 2022)
Where two headings read alike, the source gives them in different places.

Key:
zebrafish [1] = assay: survival rate of zebrafish (PTU35h embryos, drugs alone or in combination); settings: for effect on survival rate of zebrafish: used alone; for IC50: Danio rerio, 25 h, read-out: IC50 (survival rate of zebrafish)
C57BL/6 mice = settings: oral administration, 2.6 mg/kg, stress-induced; cited from earlier work
zebrafish [2] = assay: melanin content / effective rate on melanogenesis in zebrafish (NaOH lysis method); format: in vivo; settings: for efficacy of Flu (%): calculated using Formula 1; for efficacy of Cal (%): calculated using Formula 3
normal mice = settings: oral administration, 20 mg/kg; cited from earlier work
[3] = long term oral administration, 20 mg/day; cited from earlier work
[4] = test system: normal human skin melanocytes; settings: cited from earlier work
B16F10 cells = settings: cited from earlier work
tyrosinase = tyrosinase activity of zebrafish (L-DOPA oxidation method); format: in vivo
normal melanocytes = settings: 10^−9-10^−5 mol/L; cited from earlier work
zebrafish [5] = settings: in vivo
[6] = 0.2 mM PTU35h treatment group compared with normal control group
[7] = 0.005-1.28 μg/ml, compared with PTU35h treatment group

SMILES: CNCCC(Oc1ccc(C(F)(F)F)cc1)c1ccccc1 (racemic) [fluoxetine]
- effect on survival rate of zebrafish (zebrafish [1]; 100 μg/ml): significantly inhibited
- skin discoloration of unhaired back (C57BL/6 mice): can improve skin discoloration
- melanin content in zebrafish (zebrafish [2]; 6.4-25.6 μg/ml, compared with PTU35h treatment group): increase the melanin content in zebrafish in a dose-dependent manner
- effective rate (%) on melanogenesis in zebrafish (zebrafish [2]; Flu alone 0.1 μg/ml): 4.962%
- effective rate (%) on melanogenesis in zebrafish (zebrafish [2]; Flu alone 0.1 μg/ml, listed as Flu): 4.5%
- effective rate (%) on melanogenesis in zebrafish (zebrafish [2]; Flu alone 0.4 μg/ml): 6.564%
- effective rate (%) on melanogenesis in zebrafish (zebrafish [2]; Flu alone 1.6 μg/ml): 10.260%
- effective rate (%) on melanogenesis in zebrafish (zebrafish [2]; Flu alone 1.6 μg/ml, listed as Flu): 10.26%
- effective rate (%) on melanogenesis in zebrafish (zebrafish [2]; Flu alone 6.4 μg/ml): 25.804%
- effective rate (%) on melanogenesis in zebrafish (zebrafish [2]; Flu alone 25.6 μg/ml): 26.536%
- efficacy of Flu (%) (zebrafish [2]; listed as Flu 0.1 μg/ml): 3.151%
- efficacy of Flu (%) (zebrafish [2]; listed as Flu 0.4 μg/ml): 3.218%
- efficacy of Flu (%) (zebrafish [2]; listed as Flu 1.6 μg/ml): 3.486%
- efficacy of Flu (%) (zebrafish [2]; listed as Flu 6.4 μg/ml): 4.547%
- efficacy of Flu (%) (zebrafish [2]; listed as Flu 25.6 μg/ml): 8.629%
- skin coloring (normal mice): can promote skin coloring
- side effects [3]: may cause side effects, such as insomnia, lethargy, suicide, neurological disorders
- melanin of normal human skin melanocytes [4]: can promote
- synthesis (melanin) of B16F10 cells (B16F10 cells): can promote
- tyrosinase activity of zebrafish (tyrosinase; 1.6-25.6 μg/ml, compared with PTU35h treatment group): increase the tyrosinase activity of zebrafish in a dose-dependent manner

SMILES: NC(=S)Nc1ccccc1 [PTU, 1-phenyl-2-thiourea]
- melanin content in zebrafish (zebrafish [2]; [6]): decreased significantly
- tyrosinase activity of zebrafish (tyrosinase; [6]): decreased significantly

SMILES: C=C1CC[C@H](O)C/C1=C/C=C1\CCC[C@]2(C)[C@@H]([C@H](C)CCCC(C)C)CC[C@@H]12 [VD3, vitamin D3]
- effect on survival rate of zebrafish (zebrafish [1]; 5 μg/ml): significantly inhibited
- efficacy of VD3 (%) (zebrafish [2]; VD3 0.02 μg/ml, calculated using Formula 2): 3.72%
- efficacy of VD3 (%) (zebrafish [2]; VD3 0.08 μg/ml, calculated using Formula 2): 5.41%
- efficacy of VD3 (%) (zebrafish [2]; VD3 0.32 μg/ml, calculated using Formula 2): 11.07%
- efficacy of VD3 (%) (zebrafish [2]; VD3 1.28 μg/ml, calculated using Formula 2): 15.74%
- effective rate (%) on melanogenesis in zebrafish (zebrafish [2]; used alone 0.02 μg/ml): 5.564%
- effective rate (%) on melanogenesis in zebrafish (zebrafish [2]; used alone 0.08 μg/ml): 7.337%
- effective rate (%) on melanogenesis in zebrafish (zebrafish [2]; used alone 0.32 μg/ml): 10.315%
- effective rate (%) on melanogenesis in zebrafish (zebrafish [2]; used alone 1.28 μg/ml): 15.775%
- effective rate (%) on melanogenesis in zebrafish (zebrafish [2]; zebrafish, in vivo): 3.346%
- efficacy of VD3 (%) (zebrafish [2]; zebrafish, in vivo): 3.28%
- melanin content in zebrafish (zebrafish [2]; zebrafish, in vivo): no significant difference
- tyrosinase activity of zebrafish (tyrosinase; [7]): no significant effect

SMILES: C=C1/C(=C\C=C2/CCC[C@]3(C)[C@@H]([C@H](C)/C=C/[C@@H](O)C4CC4)CC[C@@H]23)C[C@@H](O)C[C@@H]1O [calcipotriol]
- effect on survival rate of zebrafish (zebrafish [1]; 5 μg/ml): significantly inhibited
- IC50 (zebrafish [1]): 3.5 mg/L
- melanogenesis of normal melanocytes (normal melanocytes): can promote melanogenesis
- efficacy of Cal (%) (zebrafish [2]; Cal 0.005 μg/ml): 3.42%
- efficacy of Cal (%) (zebrafish [2]; Cal 0.02 μg/ml): 3.85%
- efficacy of Cal (%) (zebrafish [2]; Cal 0.08 μg/ml): 5.50%
- efficacy of Cal (%) (zebrafish [2]; Cal 0.32 μg/ml): 10.77%
- efficacy of Cal (%) (zebrafish [2]; Cal 1.28 μg/ml): 11.17%
- effective rate (%) on melanogenesis in zebrafish (zebrafish [2]; used alone 0.005 μg/ml): 4.296%
- effective rate (%) on melanogenesis in zebrafish (zebrafish [2]; used alone 0.02 μg/ml): 5.509%
- effective rate (%) on melanogenesis in zebrafish (zebrafish [2]; used alone 0.08 μg/ml): 6.773%
- effective rate (%) on melanogenesis in zebrafish (zebrafish [2]; used alone 0.32 μg/ml): 10.214%
- effective rate (%) on melanogenesis in zebrafish (zebrafish [2]; used alone 1.28 μg/ml): 11.197%
- tyrosinase activity of zebrafish (tyrosinase; [7]): no significant effect

SMILES: C=C1/C(=C\C=C2/CCC[C@]3(C)[C@@H]([C@H](C)CC[C@@H](O)C(C)C)CC[C@@H]23)C[C@@H](O)C[C@@H]1O [tacalcitol]
- IC50 (zebrafish [1]): 4 mg/L
- effect on survival rate of zebrafish (zebrafish [5]): significantly inhibited
